Here are results for 2 compounds from US8377884B2, “Variants of C-type natriuretic peptides” (Biomarin Pharmaceutical Inc., priority 2007, dated 2013).

Broadly, the half-life is the time needed for the level to fall by half in the phase considered. By AUC is commonly meant concentration integrated over time. High values mean high exposure, low ones low exposure. The term bioavailability denotes the share of a dose that reaches the circulation, judged against a reference dose that is usually intravenous. A low value points to poor availability.

The target in series [1] is T1, NPR-B (Mus musculus, UniProt Q6VVW5).
T1 construct: Murine NIH3T3 cells express endogenously the CNP signaling receptor, NPR-B; endogenous in cells; host or cells: NIH3T3 (murine fibroblasts)
T1 sequence (Q6VVW5 17-1047): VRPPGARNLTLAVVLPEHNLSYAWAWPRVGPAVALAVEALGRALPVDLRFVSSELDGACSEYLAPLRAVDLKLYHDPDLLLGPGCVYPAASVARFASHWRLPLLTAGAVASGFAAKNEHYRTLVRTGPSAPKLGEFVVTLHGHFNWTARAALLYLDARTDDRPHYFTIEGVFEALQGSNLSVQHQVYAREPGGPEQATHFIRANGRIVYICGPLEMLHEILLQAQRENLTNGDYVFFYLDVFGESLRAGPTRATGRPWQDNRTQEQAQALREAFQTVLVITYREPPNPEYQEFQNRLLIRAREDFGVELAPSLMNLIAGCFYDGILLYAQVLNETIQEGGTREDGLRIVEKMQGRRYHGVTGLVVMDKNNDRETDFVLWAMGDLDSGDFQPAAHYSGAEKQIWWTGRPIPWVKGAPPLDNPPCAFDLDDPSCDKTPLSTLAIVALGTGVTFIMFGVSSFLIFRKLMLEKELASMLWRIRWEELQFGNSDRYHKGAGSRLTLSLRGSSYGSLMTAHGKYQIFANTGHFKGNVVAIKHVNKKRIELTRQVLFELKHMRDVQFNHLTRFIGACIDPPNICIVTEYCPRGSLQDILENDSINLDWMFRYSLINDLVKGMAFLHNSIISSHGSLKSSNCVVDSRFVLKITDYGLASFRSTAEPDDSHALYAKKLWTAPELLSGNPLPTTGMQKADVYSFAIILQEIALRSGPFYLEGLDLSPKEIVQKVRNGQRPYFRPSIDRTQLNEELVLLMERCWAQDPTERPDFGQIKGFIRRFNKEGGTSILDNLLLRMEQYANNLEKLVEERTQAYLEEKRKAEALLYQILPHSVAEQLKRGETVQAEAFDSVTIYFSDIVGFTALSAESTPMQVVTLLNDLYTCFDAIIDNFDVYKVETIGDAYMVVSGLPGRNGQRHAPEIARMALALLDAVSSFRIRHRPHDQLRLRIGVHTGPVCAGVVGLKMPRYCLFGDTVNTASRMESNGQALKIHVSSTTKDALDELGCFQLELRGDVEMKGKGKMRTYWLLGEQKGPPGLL
Kind of series: Stimulation of cGMP production in NIH3T3 cells. The settings on record: NIH3T3 cells, normalized to cell number and cGMP production with 1 uM wtCNP22; for cGMP response relative to 1 uM CNP22 (%) at 0.01 µM: 10 nM natriuretic peptide, read-out: cGMP Response rel. to 1 uM CNP22, 10 nM; for cGMP response relative to 1 uM CNP22 (%) at 1 µM: 1 uM natriuretic peptide, read-out: cGMP Response rel. to 1 uM CNP22, 1 uM. It is filed as cell-based, Murine.

In a further series the target is NPR-C (Homo sapiens, UniProt P17342). The note with it: read-out: affinity to NPR-C; cited from earlier work.
Chain of NPR-C (P17342 27-541, species assumed): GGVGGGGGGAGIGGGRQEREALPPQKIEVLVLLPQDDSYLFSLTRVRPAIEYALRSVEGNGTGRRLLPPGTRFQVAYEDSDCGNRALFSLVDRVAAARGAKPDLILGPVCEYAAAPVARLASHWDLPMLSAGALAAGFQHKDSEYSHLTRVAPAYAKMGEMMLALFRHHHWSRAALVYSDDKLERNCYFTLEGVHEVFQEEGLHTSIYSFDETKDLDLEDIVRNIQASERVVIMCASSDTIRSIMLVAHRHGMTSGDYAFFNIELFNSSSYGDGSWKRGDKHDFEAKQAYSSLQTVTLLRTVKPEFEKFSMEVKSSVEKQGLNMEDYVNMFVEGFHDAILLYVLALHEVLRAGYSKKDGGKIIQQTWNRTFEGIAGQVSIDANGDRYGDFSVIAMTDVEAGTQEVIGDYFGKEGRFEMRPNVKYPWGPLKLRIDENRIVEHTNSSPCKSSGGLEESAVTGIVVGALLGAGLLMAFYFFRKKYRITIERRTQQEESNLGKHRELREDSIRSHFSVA
Another series in a line: in vivo. The settings on record: FVB/N, mouse, plasma, iv, 100 nmol/kg. As for the experimental part: To determine CNP variants having increased NEP resistance, for efficacy study in FGFR3^ach mice (see Example 11), a pharmacokinetics (PK) study is carried out that compares the pharmacokinetics properties of CNP variants to wild-type CNP22. The FGFR3^ach mouse is a mutant mouse model of achondroplasia, containing a single transgene on a background of FVB mice.
Wild-type CNP22 or variant thereof is administered as a single intravenous (i.v.) dose in 6-week old wild-type FVB mice. Exemplary PK studies were conducted using wtCNP22. Six-week old FVB/N mice were intravenously administered wtCNP22 in a single dose at 100 nmol/kg.

Series [2] is described as follows: Pharmacokinetics in normal rats after single i.v. or s.c. administration. The note with it: male, rat. As for the experimental part: Studies were conducted in normal rats to evaluate the pharmacokinetics (PK) profile of CNP22 and certain CNP variants and the time courses of plasma cGMP concentration after single intravenous (i.v.) or subcutaneous (s.c.) administration of the CNP peptides. Plasma CNP immunoreactivity was determined by using a competitive radioimmunoassay (RIA) with an anti-CNP rabbit polyclonal antibody. Plasma cGMP concentration was determined by RIA using a commercially available kit (YAMASA cyclic GMP Assay kit, YAMASA Corporation).
Normal male rats, 7-8 weeks of age, were used. Recombinant wild-type CNP22, CNP37 and PEO24-CNP27(Arg4) (i.e., PEO24-GANRR-CNP22(K4R)) were evaluated. A dosage of 20 nmol/kg of each CNP peptide as a solution in 5% mannitol was intravenously injected once into the tail, or a dosage of 50 nmol/kg of each CNP peptide as a solution in 0.03 mol/L acetic acid buffer solution, pH 4.0, containing 1% (w/v) benzyl alcohol and 10% (w/v) sucrose, was subcutaneously injected once into the back.
Plasma CNP immunoreactivity was determined by the competitive RIA using anti-CNP rabbit polyclonal antibody. Standard and QC samples were prepared. Fifty uL of the standard, QC and assay samples were added, respectively, to test tubes containing 50 uL of RIA buffer. Diluted anti-CNP rabbit polyclonal antibody (100 uL) was added to the tubes. All tubes were kept at 4° C. overnight. ^125I-[Tyr^0]-CNP22 solution (100 uL) and rabbit IgG solution (100 uL) were added and left at approximately 4° C. overnight. One milliliter of anti-rabbit IgG goat serum containing 10% polyethylene glycol was added, vortexed and left at approximately 4° C. for at least 1 hour, and then the insoluble fraction was precipitated by centrifugation. After aspiration of the supernatant, the amount of radiation (gamma line) in the sediment was measured by a gamma-counter. Each sample was measured in duplicate, and the mean was adopted as the value determined.
Plasma CNP immunoreactivity was employed for pharmacokinetics (PK) analysis. PK analysis was performed using WINNONLIN® Professional (Pharsight Corporation). The PK profiles of CNP22, CNP37 and PEO24-CNP27(Arg4) after i.v. administration were calculated using PK parameters such as concentration at 0 hour (C0: extrapolation, pmol/mL), total body clearance (CLtot: mL/min/kg), distribution volume at steady state (Vdss: mL/kg), area under the plasma concentration-time curve (AUC: pmol·min/mL), mean residence time (MRT: min), and half-life (T1/2: min). The PK profiles of the CNP peptides after s.c. administration were calculated using PK parameters such as maximum plasma concentration (Cmax: pmol/mL), time to reach Cmax (Tmax: min), area under the plasma concentration-time curve (AUC: pmol·min/mL), mean residence time (MRT: min), and half-life (T1/2: min).

Series [3] addresses neutral endopeptidase (NEP) (Homo sapiens, UniProt P08473). Kind of series: In vitro neutral endopeptidase (NEP) cleavage assay. The settings on record: human, pH 7. The essentials: (§1)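 Recombinant human NEP (1 ug/mL final) incubated with 100 uM CNP variant in 0.1 M Tris, pH 7, at 37° C for various times, then quenched with EDTA (10 mM final) and heat. Samples reduced and analysed by HPLC and mass spectrometry. Half-life derived from loss of intact variant over time.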

For a further series, the target named is Recombinant human NEP (Homo sapiens, UniProt P08473). The description is as above. The settings on record: NEP digestion for […] in vitro. An outline of the steps: as §1
Chain of Recombinant human NEP (P08473 whole entry): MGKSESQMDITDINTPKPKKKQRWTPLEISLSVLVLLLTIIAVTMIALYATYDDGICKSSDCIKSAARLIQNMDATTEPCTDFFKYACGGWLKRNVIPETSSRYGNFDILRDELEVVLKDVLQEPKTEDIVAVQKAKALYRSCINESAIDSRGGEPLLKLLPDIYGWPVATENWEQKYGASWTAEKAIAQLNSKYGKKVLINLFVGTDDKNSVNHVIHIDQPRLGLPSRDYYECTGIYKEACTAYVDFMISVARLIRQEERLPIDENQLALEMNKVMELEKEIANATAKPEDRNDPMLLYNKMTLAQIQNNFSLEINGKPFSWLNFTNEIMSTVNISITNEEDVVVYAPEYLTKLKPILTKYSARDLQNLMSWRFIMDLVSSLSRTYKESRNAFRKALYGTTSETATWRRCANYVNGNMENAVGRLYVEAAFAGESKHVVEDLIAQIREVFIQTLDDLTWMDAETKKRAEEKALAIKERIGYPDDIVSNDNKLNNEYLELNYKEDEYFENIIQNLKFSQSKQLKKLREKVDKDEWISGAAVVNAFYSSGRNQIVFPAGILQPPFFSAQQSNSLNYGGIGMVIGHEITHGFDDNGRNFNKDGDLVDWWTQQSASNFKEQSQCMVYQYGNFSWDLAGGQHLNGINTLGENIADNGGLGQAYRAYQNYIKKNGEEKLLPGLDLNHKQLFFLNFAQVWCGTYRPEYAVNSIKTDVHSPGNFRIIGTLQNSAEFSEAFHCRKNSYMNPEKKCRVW
In series [4] the target is NPR-B (Homo sapiens, UniProt P20594). The settings on record: read-out: affinity to NPR-B; cited from earlier work.
Chain of NPR-B (Homo sapiens, UniProt P20594) (P20594 23-1047, species assumed): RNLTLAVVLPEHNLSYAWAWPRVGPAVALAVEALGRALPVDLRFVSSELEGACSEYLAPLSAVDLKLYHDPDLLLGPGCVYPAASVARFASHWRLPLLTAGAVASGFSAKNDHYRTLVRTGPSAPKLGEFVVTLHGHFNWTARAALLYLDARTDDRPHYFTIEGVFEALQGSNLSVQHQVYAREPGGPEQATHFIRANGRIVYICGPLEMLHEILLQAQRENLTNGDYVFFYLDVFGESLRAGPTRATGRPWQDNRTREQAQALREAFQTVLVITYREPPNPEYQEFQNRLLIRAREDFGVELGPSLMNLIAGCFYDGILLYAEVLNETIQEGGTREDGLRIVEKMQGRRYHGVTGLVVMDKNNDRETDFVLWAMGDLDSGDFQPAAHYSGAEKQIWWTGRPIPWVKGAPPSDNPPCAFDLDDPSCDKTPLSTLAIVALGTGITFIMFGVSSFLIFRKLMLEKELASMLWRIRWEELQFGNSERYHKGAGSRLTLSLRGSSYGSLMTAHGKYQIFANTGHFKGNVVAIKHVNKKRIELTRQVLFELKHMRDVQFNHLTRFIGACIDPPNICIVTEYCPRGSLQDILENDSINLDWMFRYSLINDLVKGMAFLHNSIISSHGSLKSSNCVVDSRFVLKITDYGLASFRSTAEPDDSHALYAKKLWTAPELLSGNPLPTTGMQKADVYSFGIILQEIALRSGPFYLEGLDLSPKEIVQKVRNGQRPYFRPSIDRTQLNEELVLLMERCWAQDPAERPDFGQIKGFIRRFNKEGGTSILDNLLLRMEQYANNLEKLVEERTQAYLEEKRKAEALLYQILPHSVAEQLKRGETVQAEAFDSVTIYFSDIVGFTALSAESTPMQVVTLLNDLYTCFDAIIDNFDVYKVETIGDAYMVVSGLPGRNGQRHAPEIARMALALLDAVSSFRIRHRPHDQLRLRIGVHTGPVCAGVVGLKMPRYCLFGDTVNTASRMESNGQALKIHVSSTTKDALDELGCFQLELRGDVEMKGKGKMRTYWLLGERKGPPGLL

Bridge positions count the residues as written; N and C are the ends. Peptide text beside a SMILES is read from it. * marks the point of attachment. MeO(CH2CH2O)23CH2CH2CO = COCCOCCOCCOCCOCCOCCOCCOCCOCCOCCOCCOCCOCCOCCOCCOCCOCCOCCOCCOCCOCCOCCOCCOCCC(=O)*

Chain of neutral endopeptidase (NEP) (P08473 whole entry): as the sequence (P08473 whole entry) above

Regarding `CC[C@H](C)[C@@H]1NC(=O)[C@H](CCCNC(=N)N)NC(=O)[C@H](CC(=O)O)NC(=O)[C@H](CC(C)C)NC(=O)[C@H](CCCCN)NC(=O)[C@H](CC(C)C)NC(=O)CNC(=O)[C@H](Cc2ccccc2)NC(=O)[C@@H](NC(=O)CNC(=O)[C@H](CCCCN)NC(=O)[C@H](CO)NC(=O)[C@H](CC(C)C)NC(=O)CN)CSSC[C@@H](C(=O)O)NC(=O)CNC(=O)[C@H](CC(C)C)NC(=O)CNC(=O)[C@H](CO)NC(=O)[C@H](CCSC)NC(=O)[C@H](CO)NC(=O)CNC1=O` [CNP22, CNP-22], at NPR-B [1], the cGMP response relative to 1 uM CNP22 (%) at 0.01 µM is 46 ± 10% and the cGMP response relative to 1 uM CNP22 (%) at 1 µM is 100 ± 13%. In addition, the Kd on NPR-C is 0.011 to 0.14 nM. In “in vivo”, the half-life fell in the range of 0.76 to 1.03 min. Also, in series [2] (in vivo, iv, 20 nmol/kg), the AUC was 5.33 nM·h and the half-life came to 1.42 min. In series [2] (in vivo, sc, 50 nmol/kg), the bioavailability is 19% and the half-life was found to be 10 min. The half-life at 100 uM in series [3] is 80 min. The “sites hydrolyzed on NEP digestion” value on Recombinant human NEP was “all possible sites were unexpectedly hydrolyzed”. On NPR-B [4], the Kd is 0.007 to 0.03 nM.
For `CC[C@H](C)[C@@H]1NC(=O)[C@H](CCCNC(=N)N)NC(=O)[C@H](CC(=O)O)NC(=O)[C@H](CC(C)C)NC(=O)[C@H](CCCCN)NC(=O)[C@H](CC(C)C)NC(=O)CNC(=O)[C@H](Cc2ccccc2)NC(=O)[C@@H](NC(=O)CNC(=O)[C@H](CCCNC(=N)N)NC(=O)[C@H](CO)NC(=O)[C@H](CC(C)C)NC(=O)CNC(=O)[C@H](CCCNC(=N)N)NC(=O)[C@H](CCCNC(=N)N)NC(=O)[C@H](CC(N)=O)NC(=O)[C@H](C)NC(=O)CNC(=O)CCOCCOCCOCCOCCOCCOCCOCCOCCOCCOCCOCCOCCOCCOCCOCCOCCOCCOCCOCCOCCOCCOCCOCCOC)CSSC[C@@H](C(=O)O)NC(=O)CNC(=O)[C@H](CC(C)C)NC(=O)CNC(=O)[C@H](CO)NC(=O)[C@H](CCSC)NC(=O)[C@H](CO)NC(=O)CNC1=O` [PEO24-GANRR-CNP22, K4R (CNP27)] ({MeO(CH2CH2O)23CH2CH2CO}-GANRRGLSRGCFGLKLDRIGSMSGLGC-OH; disulfide 11-27), at NPR-B [1], the cGMP response relative to 1 uM CNP22 (%) at 0.01 µM was found to be 28 ± 9% and the cGMP response relative to 1 uM CNP22 (%) at 1 µM was found to be 82 ± 18%. Moreover, the half-life in series [2] (iv, 20 nmol/kg) was 22.3 min. In series [2] (sc, 50 nmol/kg), this compound registered a bioavailability of 60% and a half-life of 78.1 min. The half-life at 100 uM in series [3] is greater than 160 min.
